Values quoted from earlier work in US9561187B1, “Sustained release metoprolol formulations” (CMAX Technologies, Inc., priority 2014, dated 2017).
Where a name gives a salt, the structure may show the parent alone. Read-outs that look alike come from different tables or passages of the source.

Legend:
[1] = immediate-release tartrate vs extended-release succinate

SMILES	Solubility (in dichloromethane and 2-propanol)	Solubility (in ethanol)	Solubility (in ethyl-acetate, acetone, diethylether and heptane)	Solubility (in methanol)	Solubility (in water)	Solubility (in acetone)	Solubility (in ether)	Solubility (in methylene chloride, in chloroform, and in alcohol)	More bioavailable than metoprolol succinate (more drug is absorbed) [1]
COCCc1ccc(OCC(O)CNC(C)C)cc1 (racemic) [Metoprolol succinate, (±)1(isopropylamino)-3-[p-(2-methoxyethyl)phenoxy]-2-propanol succinate (2:1) (salt)]	slightly soluble	sparingly soluble	practically insoluble	soluble	freely soluble				
COCCc1ccc(OCC(O)CNC(C)C)cc1 (racemic) [Metoprolol tartrate, (±)-1-(Isopropylamino)-3-[p-(2-methoxyethyl)phenoxy]-2-propanol L-(+)-tartrate (2:1) salt]					very soluble	slightly soluble	insoluble	freely soluble	at least 30%
